We go through one compound from paper PMC12067858 (Febs Letters, 2025).

This experiment deals with T1, NcAA9C (Neurospora crassa, UniProt Q7SHI8).
T1 construct: gene gh61-3; copper-saturated
T1 sequence (Q7SHI8 17-359): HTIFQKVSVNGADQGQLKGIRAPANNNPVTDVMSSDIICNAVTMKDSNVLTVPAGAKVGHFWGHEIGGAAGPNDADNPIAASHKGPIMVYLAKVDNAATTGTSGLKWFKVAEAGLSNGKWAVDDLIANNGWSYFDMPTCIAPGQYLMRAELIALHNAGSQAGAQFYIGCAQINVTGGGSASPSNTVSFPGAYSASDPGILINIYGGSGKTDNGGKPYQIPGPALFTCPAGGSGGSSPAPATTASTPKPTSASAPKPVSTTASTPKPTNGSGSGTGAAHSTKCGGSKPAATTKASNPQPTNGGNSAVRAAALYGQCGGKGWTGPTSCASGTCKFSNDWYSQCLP
Nature of the experiment: HPAEC-PAD of cellotriose product. It counts as biochemical. The settings on record: 1 uM enzyme, 100 uM ascorbate, 100 uM H2O2, 50 mM MOPS pH 7.0, 30 C.

On to `OC[C@H]1O[C@@H](O[C@H]2[C@H](O)[C@@H](O)[C@H](O[C@H]3[C@H](O)[C@@H](O)[C@H](O[C@H]4[C@H](O)[C@@H](O)[C@H](O[C@H]5[C@H](O)[C@@H](O)C(O)O[C@@H]5CO)O[C@@H]4CO)O[C@@H]3CO)O[C@@H]2CO)[C@H](O)[C@@H](O)[C@@H]1O` (stereo partly shown) [cellopentaose], for which the “HPAEC-PAD of cellotriose product” value is “conversion of small, soluble and easily diffusible cellopentaose by NcAA9C”.
